# Assay results from publication PMC10247784, “Physiological activation of human and mouse bitter taste receptors by bile acids” (Communications Biology, 2023).
# Several values for one entry are separate records, joined by “and”; a condition that tells them apart may be missing. Equal entries are not always repeated.
# Target: T1, human TAS2R1 (Homo sapiens, UniProt Q9NYW7)
# T1 construct: expressed in transfected cells; host or cells: HEK293T-Gα16gust44
# T1 sequence (Q9NYW7 1-299): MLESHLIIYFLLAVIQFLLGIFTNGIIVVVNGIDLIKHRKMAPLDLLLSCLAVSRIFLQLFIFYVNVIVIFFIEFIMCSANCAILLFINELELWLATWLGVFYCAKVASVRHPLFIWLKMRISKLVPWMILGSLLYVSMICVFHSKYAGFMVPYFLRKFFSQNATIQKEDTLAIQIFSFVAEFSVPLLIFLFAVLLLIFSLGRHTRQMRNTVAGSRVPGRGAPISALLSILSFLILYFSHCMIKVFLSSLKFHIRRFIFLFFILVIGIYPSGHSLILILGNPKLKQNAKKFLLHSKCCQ
# Test: Calcium imaging assay (FLIPR), HEK293T-Gα16gust44 cells transfected with human TAS2R1
# Assay type: cell-based
# Method in brief: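 HEK293T-Gα16gust44 cells transiently transfected with the bitter-taste receptor, loaded next day with Fluo-4-AM plus 2.5 mM probenecid, and challenged with bile acids on FLIPR Tetra. Signals mock-subtracted, expressed as ΔF/F vs buffer.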
compound,measurement,setting,value
"C[C@H](CCC(=O)NCCS(=O)(=O)O)[C@H]1CC[C@H]2[C@@H]3CC[C@@H]4C[C@H](O)CC[C@]4(C)[C@H]3CC[C@]12C [Taurolithocholic Acid, taurolithocholic acid]",Efficacy = maximal amplitude (ΔF/F),"TAS2R1, bile acids, mean",0.1277
same,"Efficacy (maximal amplitude ΔF/F), individual data points","TAS2R1, bile acids, single replicates, listed as TLCA",0.1258 and 0.1227 and 0.1699 and 0.1221 and 0.09796
same,RLU,Time 0 s (second time grid),0 RLU
same,RLU,Time 2 s,-8.765 RLU
same,RLU,Time 4 s,34.6882 RLU
same,RLU,Time 6 s,11.8088 RLU
same,RLU,Time 8 s,18.099 RLU
same,RLU,Time 12 s,15.1496 RLU
same,RLU,Time 14 s,13.1492 RLU
same,RLU,Time 16 s,0.9458 RLU
same,RLU,Time 18 s,9.703 RLU
same,RLU,Time 18.781 s,5.165 RLU
same,RLU,Time 20.781 s,27.2472 RLU
same,RLU,Time 22.781 s,1.644 RLU
same,RLU,Time 24.781 s,-21.8293 RLU
same,RLU,Time 26.781 s,33.0454 RLU
same,RLU,Time 28.781 s,106.888 RLU
same,RLU,Time 30.781 s,183.135 RLU
same,RLU,Time 32.781 s,270.143 RLU
same,RLU,Time 34.781 s,337.182 RLU
same,RLU,Time 36.781 s,405.016 RLU
same,RLU,Time 38.781 s,448.367 RLU
same,RLU,Time 40.781 s,483.096 RLU
same,RLU,Time 42.781 s,511.157 RLU
same,RLU,Time 44.781 s,542.077 RLU
same,RLU,Time 46.781 s,572.975 RLU
same,RLU,Time 48.781 s,599.496 RLU
same,RLU,Time 50.781 s,624.238 RLU
same,RLU,Time 52.781 s,642.403 RLU
same,RLU,Time 54.781 s,649.802 RLU
same,RLU,Time 56.781 s,680.566 RLU
same,RLU,Time 58.781 s,693.048 RLU
same,RLU,Time 60.781 s,676.887 RLU
same,RLU,Time 62.781 s,735.967 RLU
same,RLU,Time 64.781 s,726.535 RLU
same,RLU,Time 66.781 s,712 RLU
same,RLU,Time 68.781 s,708.17 RLU
same,RLU,Time 70.781 s,740.519 RLU
same,RLU,Time 72.781 s,720.827 RLU
same,RLU,Time 74.781 s,715.629 RLU
same,RLU,Time 76.781 s,740.295 RLU
same,RLU,Time 78.781 s,736.469 RLU
same,RLU,Time 80.781 s,705.753 RLU
same,RLU,Time 82.781 s,719.776 RLU
same,RLU,Time 84.781 s,729.602 RLU
same,RLU,Time 86.781 s,717.016 RLU
same,RLU,Time 88.781 s,708.528 RLU
same,RLU,Time 90.781 s,685.914 RLU
same,RLU,Time 92.781 s,709.593 RLU
same,RLU,Time 94.781 s,708.426 RLU
same,RLU,Time 96.781 s,665.125 RLU
same,RLU,Time 98.781 s,639.76 RLU
same,RLU,Time 100.781 s,661.017 RLU
same,RLU,Time 102.781 s,653.391 RLU
same,RLU,Time 104.781 s,622.006 RLU
same,RLU,Time 106.781 s,616.277 RLU
same,RLU,Time 108.781 s,602.431 RLU
same,RLU,Time 110.781 s,574.352 RLU
same,RLU,Time 112.781 s,593.769 RLU
same,RLU,Time 114.781 s,553.55 RLU
same,RLU,Time 116.781 s,583.964 RLU
same,RLU,Time 118.781 s,539.304 RLU
same,RLU,Time 120.781 s,524.165 RLU
same,RLU,Time 122.781 s,518.27 RLU
same,RLU,Time 124.781 s,503.611 RLU
same,RLU,Time 126.781 s,474.132 RLU
same,RLU,Time 128.781 s,435.021 RLU
same,RLU,Time 130.781 s,439.84 RLU
same,RLU,Time 132.781 s,420.045 RLU
same,RLU,Time 134.781 s,393.577 RLU
same,RLU,Time 136.781 s,395.556 RLU
same,RLU,Time 137.547 s,402.14 RLU
same,RLU,Time 143.547 s,371.698 RLU
same,RLU,Time 149.547 s,331.65 RLU
same,RLU,Time 155.547 s,280.988 RLU
same,RLU,Time 161.547 s,237.537 RLU
same,RLU,Time 167.547 s,191.55 RLU
same,RLU,Time 173.547 s,185.568 RLU
same,RLU,Time 179.547 s,137.711 RLU
same,RLU,Time 185.547 s,105.562 RLU
same,RLU,Time 191.547 s,24.299 RLU
same,RLU,Time 197.547 s,1.672 RLU
same,RLU,Time 203.547 s,-7.55 RLU
same,RLU,Time 209.547 s,-39.8614 RLU
same,RLU,Time 215.547 s,-81.387 RLU
same,RLU,Time 221.547 s,-74.4232 RLU
same,RLU,Time 227.547 s,-79.2952 RLU
same,RLU,Time 233.547 s,-69.562 RLU
same,RLU,Time 239.547 s,-81.6561 RLU
same,RLU,Time 245.547 s,-72.3962 RLU
same,RLU,Time 293.547 s,-154.558 RLU
same,RLU,Time 299.547 s,-170.989 RLU
same,RLU,"calcium trace, sheet TAS2R1, Time 305.547 s",-184.97 RLU
same,RLU,"calcium trace, sheet TAS2R1, Time 311.547 s",-208.123 RLU
same,RLU,"calcium trace, sheet TAS2R1, Time 317.547 s",-201.311 RLU
same,RLU,"calcium trace, sheet TAS2R1, Time 323.547 s",-236.998 RLU
same,RLU,"calcium trace, sheet TAS2R1, Time 329.547 s",-230.646 RLU
same,RLU,"calcium trace, sheet TAS2R1, Time 335.547 s",-241.48 RLU
same,RLU,"calcium trace, sheet TAS2R1, Time 341.547 s",-222.174 RLU
same,RLU,"calcium trace, sheet TAS2R1, Time 347.547 s",-215.316 RLU
same,RLU,"calcium trace, sheet TAS2R1, Time 353.547 s",-228.211 RLU
same,RLU,"calcium trace, sheet TAS2R1, Time 359.547 s",-233.286 RLU
same,EC50,calculated where receptor saturation was reached,1.9 µM
same,Activation threshold concentration TAS2R1,lowest concentration with significantly increased fluorescence vs empty vector (p < 0.01),0.3 µM and 0.30 µM
